Data taken from US5124326A, “Pharmaceutically efficacious pteridine derivatives” (Roehm GmbH Chemische Fabrik, priority 1989, dated 1992).
In brackets after ≈: the same amount, converted by molar mass. Where two headings read alike, the source gives them in different places.

Tests used:
urine volume, Na^+, K^+ = assay: diuresis test in rats (urine volume, Na+, K+ excretion; dose/response, ED50); assay type: in vivo, Male Wister rats; settings: for ED50: Rattus norvegicus; for ED50 / Na^+/K^+ quotient i.v. / Na^+/K^+ quotient p.o.: rats
Method: The compounds of formula I and their acid addition salts, with physiologically tolerable acids are quite suitable for peroral and intravenous medication. The diuresis tests were conducted according to the following method. Diuresis Tests/Method Male Wister rats, weighing approximately 130 g, were used in the tests. Food had been withdrawn from the rats for 18 hours. Immediately before the intravenous administration of the test substance, they were fed orally a quantity of 20 ml/kg of 0.9% NaCl solution. […] Under a slight anesthesia, administration was by the caudal vein. Generally six experimental animals were used per test. The peroral administration was by means of probang in the gastrointestinal region. The substances were administered in a mixture comprising Tylose® and physiological NaCl solution, which serves simultaneously as the hydration agent ([…]). The animals were placed individually into diuresis cages and urine was collected after 2.5 or 3 or 6 hours. The electrolytes (Na^+ K^+, Mg^+2) were determined by means of flame photometry and by means of atomic absorption measurement with the FL6 automatic electrolyte equipment from Zeiss/Oberkochen. Curves for dose/response correlations were obtained with the aid of non-linear regression analysis with the NONLIN computer program by C. Daniel and F. S. Wood in "Fitting Equations to Data", J. Wiley & Sons, New York, 1980. Thus, the characteristic value ED50 (=potency) applied to determine the diuretic efficacy is defined as the quantity of active substance per kg of body weight, which is necessary for the semi-maximum effect.

[1] = resorption rate from renal recovery following p.o. and i.v. administration; assay type: in vivo, Male Wister rats; settings: rat, urine, po; quotient of urinary recovery p.o./i.v.; rats
Method: Male Wister rats, weighing approximately 130 g, were used in the tests. Food had been withdrawn from the rats for 18 hours. Immediately before the intravenous administration of the test substance, they were fed orally a quantity of 20 ml/kg of 0.9% NaCl solution. […] Under a slight anesthesia, administration was by the caudal vein. Generally six experimental animals were used per test. The peroral administration was by means of probang in the gastrointestinal region. The substances were administered in a mixture comprising Tylose® and physiological NaCl solution, which serves simultaneously as the hydration agent ([…]). The animals were placed individually into diuresis cages and urine was collected after 2.5 or 3 or 6 hours. The electrolytes (Na^+ K^+, Mg^+2) were determined by means of flame photometry and by means of atomic absorption measurement with the FL6 automatic electrolyte equipment from Zeiss/Oberkochen. The renal recovery of the test substances serves as a means of measuring resorption following oral administration. The resorption rate is determined from the quotients of the recovery rates following peroral (p.o.) and intravenous (i.v.) administration, as given in percent. The recovery rate notes the renally excreted quantity based on the medicated quantity of the active substances. The concentration of the test substances in the urine of the animals is determined in accordance with thin-layer chromatographic separation by means o spectrophotometry.

[2] = distribution coefficient log P; assay type: physicochemical; settings: for logD: read-out: lipophilicity log P; for logP: from the preparation examples
[3] = solubility in isotonic phosphate buffer pH 7.4; assay type: physicochemical; settings: for solubility: aqueous buffer
metabolization = settings: in vivo
[4] = iv, duration 2.5 h, read-out: ED50 (potency), urine K^+
[5] = iv, duration 2.5 h, read-out: ED50 (potency), urine Na^+
[6] = iv, duration 2.5 h, read-out: ED50 (potency), urine volume
[7] = iv, duration 6 h, read-out: ED50 (potency), urine K^+
[8] = iv, duration 6 h, read-out: ED50 (potency), urine Na^+
[9] = iv, duration 6 h, read-out: ED50 (potency), urine volume
[10] = po, duration 3 h, read-out: ED50 (potency), urine K^+
[11] = po, duration 3 h, read-out: ED50 (potency), urine Na^+
[12] = po, duration 3 h, read-out: ED50 (potency), urine volume
[13] = po, duration 6 h, read-out: ED50 (potency), urine K^+
[14] = po, duration 6 h, read-out: ED50 (potency), urine Na^+
[15] = po, duration 6 h, read-out: ED50 (potency), urine volume
[16] = isotonic phosphate buffer, pH = 7.4, read-out: solubility
[17] = isotonic phosphate buffer pH 7.4, read-out: solubility in isotonic phosphate buffer

Row | Fa [1] [%] | solubility [3, 16] [µg/mL] | logD ([2]; pH = 7.4) | solubility [3, 17] [µg/mL] | SMILES | ED50 (urine volume, Na^+, K^+; [4]) [µmol/kg] | ED50 (urine volume, Na^+, K^+; [5]) [µmol/kg] | ED50 (urine volume, Na^+, K^+; [6]) [µmol/kg] | ED50 (urine volume, Na^+, K^+; [7]) [µmol/kg] | ED50 (urine volume, Na^+, K^+; [8]) [µmol/kg] | ED50 (urine volume, Na^+, K^+; [9]) [µmol/kg] | Na^+/K^+ quotient i.v. (urine volume, Na^+, K^+) | Na^+/K^+ quotient p.o. (urine volume, Na^+, K^+) | also measured
1 | ~80 | 21 (≈ 82.9 µM) | – | – | Nc1nc(N)c2nc(-c3ccccc3)c(N)nc2n1 [Triamterene, 2,4,7-triamino-6-phenylpteridine, reference compound] | 11.2 | 2.38 | 13.9 | 9.79 | 10.6 | 10.6 | 8 | 6 | ED50 (urine volume, Na^+, K^+; [10]): 3.38 µmol/kg; ED50 (urine volume, Na^+, K^+; [11]): 6.17 µmol/kg; ED50 (urine volume, Na^+, K^+; [12]): 6.4 µmol/kg; ED50 (urine volume, Na^+, K^+; [13]): 8.39 µmol/kg; ED50 (urine volume, Na^+, K^+; [14]): 5.06 µmol/kg; ED50 (urine volume, Na^+, K^+; [15]): 6.57 µmol/kg; lipophilicity log P ([2]; pH = 7.4): 1.26
2 | 11 | 580 (≈ 1870 µM) | -0.36 | – | CN(C)Cc1ccc(-c2nc3c(N)nc(N)nc3nc2N)cc1 [compound IA, 2,4,7-Triamino-6-[4-(dimethylaminomethyl)phenyl]pteridine] | – | – | – | – | – | – | 9 | 18 | –
3 | < 1 | – | 2.7 | 1.1 (≈ 2.5 µM) | Nc1nc(N)c2nc(-c3ccc(CN4CCC(Cc5ccccc5)CC4)cc3)c(N)nc2n1 [compound IB, 2,4,7-Triamino-6-[4-(4-benzylpiperidinomethyl)phenyl]pteridine] | – | – | – | – | – | – | 17 | 4 | –
4 | 33 | 25 (≈ 66.1 µM) | 0.68 | – | CC1CCCC(C)N1Cc1ccc(-c2nc3c(N)nc(N)nc3nc2N)cc1 (stereo not drawn) [compound IF, 2,4,7-Triamino-6-[4-(2,6-dimethylpiperidinomehyl)phenyl]pteridine] | – | – | – | – | – | – | 21 | 15 | –
5 | 4 | – | -0.59 | 2200 (≈ 6780 µM) | CN(C)CCc1ccc(-c2nc3c(N)nc(N)nc3nc2N)cc1 [compound IJ, 2,4,7-Triamino-6-[4-(2-dimethylaminoethyl)phenyl]pteridine] | 1.04 | 1.63 | 2.36 | 2.6 | 1.64 | 2.61 | 10 | 6 | logP [2]: -0.59

Continued, compound first:

Row | SMILES | Fa [1] [%] | solubility [3, 16] [µg/mL] | logD ([2]; pH = 7.4) | solubility [3, 17] [µg/mL] | ED50 (urine volume, Na^+, K^+; [4]) [µmol/kg] | ED50 (urine volume, Na^+, K^+; [5]) [µmol/kg] | ED50 (urine volume, Na^+, K^+; [6]) [µmol/kg] | ED50 (urine volume, Na^+, K^+; [7]) [µmol/kg] | ED50 (urine volume, Na^+, K^+; [8]) [µmol/kg] | ED50 (urine volume, Na^+, K^+; [9]) [µmol/kg] | Na^+/K^+ quotient i.v. (urine volume, Na^+, K^+) | Na^+/K^+ quotient p.o. (urine volume, Na^+, K^+) | also measured
6 | CC(C)N(Cc1ccccc1)Cc1ccc(-c2nc3c(N)nc(N)nc3nc2N)cc1 [compound IC, 2,4,7-Triamino-6-[4-(N-benzyl-N-isopropylaminomethyl)phenyl]pteridien] | – | 1.9 (≈ 4.58 µM) | 3.2 | – | – | – | – | – | – | – | 7 | 13 | metabolization (metabolization): is metabolized quantitatively
7 | Nc1nc(N)c2nc(-c3ccc(CN4CCCCC4)cc3)c(N)nc2n1 [compound ID, 2,4,7-Triamino-6-[4-(piperidinomethyl)phenyl]pteridine] | 19 | 76 (≈ 217 µM) | 0.2 | – | – | – | – | – | – | – | 37 | 7 | –
8 | CC1CCN(Cc2ccc(-c3nc4c(N)nc(N)nc4nc3N)cc2)CC1 [compound IE, 2,4,7-Triamino-6-[4-(4-methylpiperidinomethyl)phenyl]pteridine] | 31 | 139 (≈ 381 µM) | 0.89 | – | 5.4 | 3.13 | 2.65 | 5.9 | 12.7 | 8.24 | 27 | 14 | ED50 (urine volume, Na^+, K^+; [10]): 2.16 µmol/kg; ED50 (urine volume, Na^+, K^+; [11]): 9.49 µmol/kg; ED50 (urine volume, Na^+, K^+; [12]): 11.8 µmol/kg; ED50 (urine volume, Na^+, K^+; [13]): 2.41 µmol/kg; ED50 (urine volume, Na^+, K^+; [14]): 12.7 µmol/kg; ED50 (urine volume, Na^+, K^+; [15]): 14.8 µmol/kg; potassium-saving potency in comparison to Triamterene (urine volume, Na^+, K^+; following peroral administration, vs Triamterene): higher potassium-saving potency; metabolization (metabolization): No metabolization; increased solubility in comparison to Triamterene ([3]; pH 7.4 in phosphate buffer, vs Triamterene): 6.5 fold
9 | CC1CC(C)CN(Cc2ccc(-c3nc4c(N)nc(N)nc4nc3N)cc2)C1 (stereo not drawn) [compound IG, 2,4,7-Triamino-6-[4-(3,5-dimethylpiperidinomethyl)phenyl]pteridine] | 23 | 13 (≈ 34.3 µM) | 1.74 | – | – | – | – | – | – | – | 39 | 7 | –
10 | CN(C)CCCc1ccc(-c2nc3c(N)nc(N)nc3nc2N)cc1 [compound IH, 2,4,7-Triamino-6-[40(3-dimethylaminopropyl)phenyl]pteridine] | 3 | – | -0.6 | 2000 (≈ 5910 µM) | 1.41 | 1.44 | 1.23 | 1.3 | 1.83 | 1.7 | 12 | 7 | logP [2]: -0.6
11 | CC1CCCC(C)N1CCCc1ccc(-c2nc3c(N)nc(N)nc3nc2N)cc1 (stereo not drawn) [compound IL, 2,4,7-Triamino-6-[4-(3-(2,6-dimethylpiperidino)propyl)phenyl]pteridine] | 3 | 1500 (≈ 3690 µM) | 0.04 | – | – | – | – | – | – | – | 170 | 8 | –
12 | CC1CC(C)CN(CCCc2ccc(-c3nc4c(N)nc(N)nc4nc3N)cc2)C1 (stereo not drawn) [compound IM, 2,4,7-Triamino-6-[4-(3-(3,5-dimethylpiperidino)propyl)phenyl]pteridine] | 7 | – | 1.18 | 135 (≈ 332 µM) | – | – | – | – | – | – | 128 | 27 | logP [2]: 1.18
